Measurements reported in PubChem BioAssay (NCI).
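Interpolation was linear, between the two tested concentrations surrounding the appropriate level; five concentrations were tested over 48 hours in 96-well plates. Definition used: TGI = concentration required for complete inhibition of growth.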 Where a SMILES comes first, the peptide text is derived from it. [ ]: non-standard residue; d: D form. The star is where a group is joined. Octanoyl = CCCCCCCC(=O)*; Aib = CC(C)(N)C(=O)O; tBu = CC(C)(C)*

Key:
Assay in all cases: DTP human tumour cell line panel, 48 h
A498 renal = system: A498 renal
HCC-2998 colon = system: HCC-2998 colon
A549 NSCLC = system: A549 NSCLC
UACC-257 melanoma = system: UACC-257 melanoma
HS 578T breast = system: HS 578T breast
T-47D breast = system: T-47D breast
CCRF-CEM leukemia = system: CCRF-CEM leukemia
OVCAR-8 ovarian = system: OVCAR-8 ovarian
K-562 leukemia = system: K-562 leukemia
HOP-92 NSCLC = system: HOP-92 NSCLC
PC-3 prostate = system: PC-3 prostate
MDA-MB-231 breast = system: MDA-MB-231 breast
SW-620 colon = system: SW-620 colon
RXF 393 renal = system: RXF 393 renal
IGROV1 ovarian = system: IGROV1 ovarian
NCI-H522 lung = system: NCI-H522 lung

Row | Compound | TGI (A498 renal) [µM] | TGI (HCC-2998 colon) [µM] | TGI (A549 NSCLC) [µM] | TGI (UACC-257 melanoma) [µM] | TGI (HS 578T breast) [µM] | TGI (T-47D breast) [µM] | TGI (CCRF-CEM leukemia) [µM] | TGI (OVCAR-8 ovarian) [µM] | TGI (K-562 leukemia) [µM] | TGI (HOP-92 NSCLC) [µM] | TGI (PC-3 prostate) [µM] | TGI (MDA-MB-231 breast) [µM] | TGI (SW-620 colon) [µM] | TGI (RXF 393 renal) [µM] | TGI (IGROV1 ovarian) [µM] | TGI (NCI-H522 lung) [µM]
1 | CC(=O)OCC1OC(n2c(N)c(C#N)c(-c3ccc(C)cc3)c(C#N)c2=S)C(OC(C)=O)C(OC(C)=O)C1OC(C)=O (stereo unspecified) | > 100 | 34 | 29.5 | 39.7 | 38.7 | 47.8 | 78.4 | 28.5 | > 100 | 28.5 | > 100 | > 100 | > 100 | 32.7 | 45.4 | 
2 | CCCCCCCC(=O)NC(C)(C)C(=O)NC(COC(C)(C)C)C(=O)NC(CC(C)C)C(=O)NC(C)(C)C(=O)NC(COC(C)(C)C)C(=O)NC(COC(C)(C)C)C(=O)NC(CC(C)C)C(=O)NC(C)(C)C(=O)NC(COC(C)(C)C)C(=O)NC(C(=O)NC(CC(C)C)C(=O)OC)C(C)CC (stereo unspecified) (Octanoyl-[Aib]S(tBu)L[Aib]S(tBu)S(tBu)L[Aib]S(tBu)IL-OMe; configuration not given here) | 14 |  | > 25 | > 25 | > 25 | 23.5 | 11.9 | > 25 | > 25 | 10.6 | 9.36 | 15.9 | > 25 | 9.99 | 12.5 | > 25
3 | COc1cc([N+](=O)[O-])ccc1NC1=CC(=O)CCC1 | > 100 | > 100 | > 100 | > 100 | > 100 | > 100 | > 100 | > 100 | > 100 | > 100 | > 100 | > 100 | > 100 | > 100 | > 100 | 
4 | COC(=O)C1(Cc2ccccc2)Cc2ccc3c(c2C1=O)CCC3 (stereo unspecified) | > 89.8 | > 100 | > 100 | 99.1 | > 84.3 | > 100 | > 89.5 | > 100 | > 100 | > 73 | > 100 | > 100 | > 100 | > 69.5 | > 100 | 75.5
5 | Oc1ccc(Cn2c(-c3ccc(O)c(O)c3)nc3ccccc32)cc1O | > 100 | 27.3 | 66.2 | > 100 | 35.2 | 45.1 | 32.8 | 25.5 | 55.9 | 41.9 | > 100 | 43.3 | 42.1 | > 100 | 66.4 | 17.1
6 | CCOC(=O)CCC(NC(=O)c1ccc(Nc2nc3ccccc3nc2-c2cccs2)cc1)C(=O)OCC (stereo unspecified) | > 100 | > 100 | > 100 | > 100 | > 100 | > 100 | > 100 | > 100 | > 100 | > 100 | > 100 | > 100 | > 100 | > 100 | > 100 | 
7 | CCOC(=O)CCC(NC(=O)c1ccc(OCc2nc3ccccc3n3cccc23)cc1)C(=O)OCC (stereo unspecified) | > 100 | > 100 | > 100 | > 100 | > 100 | > 100 | > 100 | > 100 | > 100 | > 100 | > 100 | > 100 | > 100 | > 100 | > 100 | 69.3
8 | O=C(NC1=NC2C=CC([N+](=O)[O-])=CC2S1)C(=O)Nn1c(=S)[nH]c2ccccc2c1=O (stereo unspecified) | > 100 | > 100 | > 100 | > 100 | > 100 | > 100 | > 100 | > 100 | > 100 | > 100 | > 100 | > 100 | > 100 | > 100 | > 100 | > 100
9 | O=[N+]([O-])c1cc(Cl)cc2cc(Cl)cnc12 | > 100 | > 100 | > 100 | > 100 | > 100 | 97.2 | > 100 | > 100 | > 100 | > 100 | > 100 | > 100 | > 100 | > 100 | 66.8 | > 100
10 | O=c1[nH]nc(Cc2ccc(Cl)cc2)n1/N=C\c1ccc(/C=N/n2c(Cc3ccc(Cl)cc3)n[nH]c2=O)cc1 | > 100 |  | > 100 | > 100 | > 100 | > 100 | > 100 | > 100 | > 100 | > 100 | > 100 | 70.5 | > 100 | > 100 | > 100 | > 100
11 | COc1cc([C@@H]2c3[nH]c4ccccc4c3C(Nc3ccc([N+](=O)[O-])cc3)[C@H]3COC(=O)N23)cc(OC)c1O (stereo partly specified) | 0.653 | 20.3 | 0.95 | 11.6 | 2.79 | > 23.2 | 0.325 | 0.86 | 6.97 | 1.96 | 7.88 | 0.648 |  | 1.04 | 2.86 | 1.97
12 | S=C(S)N1CCN(c2ccc(Cl)c(Cl)c2)CC1 | 44.2 | 36.6 | > 100 |  | 97.2 | 42.6 | > 100 | > 100 | 55.8 | 75.3 | 46.9 | 40.7 | 52.9 | > 100 | 84.6 | 50.1
13 | Cc1cccc(-c2cc(=S)c3cc(N4CCCC4)ccc3[nH]2)c1 | > 100 | > 100 | > 100 | > 100 | > 100 | > 100 | > 100 |  | > 100 | > 100 | > 100 | > 100 | > 100 | > 100 |  | 
14 | CN(CCCCN(C)CCc1ccc(Cl)c(Cl)c1)CCCCN1CCCC1 | 3.14 | 0.384 | 3.35 | 3.06 | 3.23 | 3.94 | 0.39 | 6.25 |  | 2.95 | 4.52 | 2.25 | 3.02 | 3.03 | 5.57 | 2.32
15 | CC(=O)N[C@H]1CCCC[C@@H]1OC(C)=O | > 100 | > 100 |  | > 100 | > 100 | > 100 |  | > 100 | > 100 | > 100 | > 100 | > 100 | > 100 | > 100 | > 100 | > 100
16 | CN(C1=NCCO1)c1cccc2c1CCCC2 | 9.35 | > 10 | > 10 | > 10 | > 10 | > 10 | 8.06 | > 10 | > 10 |  | 8.53 | 5.28 | > 10 | > 10 | 8.35 | > 10
17 | COc1ccc2oc(C(=O)N3CC(CCl)c4ccc([N+](=O)[O-])cc43)cc2c1 (stereo unspecified) | 58.5 | > 100 |  | > 100 | 62.2 | > 100 |  | > 100 | > 100 | > 100 | > 100 | 54.5 | > 100 | 34 | 29.5 | 
18 | O=C(O)CC/C(=N\Nc1nsc2ccccc12)c1ccc(Cl)cc1 | 99.4 | 36.8 | > 82.2 | > 67.4 | > 100 | > 100 | > 54.6 | > 100 | > 100 | > 100 | > 100 | 93.2 | > 87.8 | > 53.7 | > 100 | > 100
19 | O=C(O)c1ccc(C(c2c(O)c3ccccc3oc2=O)c2c(O)c3ccccc3oc2=O)cc1 | > 100 | > 100 | > 100 | > 100 | 62.7 | > 100 | > 100 | > 100 | > 100 | 6.04 | > 100 | > 100 | > 100 | > 100 |  | 
20 | COc1ccc(/C=C/C(=O)N[C@@H]2C(=O)N3[C@@H]2SC(C)(C)[C@@H]3C(=O)O)cc1 | > 100 | > 100 | > 100 | > 100 | > 100 | > 100 | > 100 | > 100 | > 100 | > 100 | > 100 | > 100 | > 100 | > 100 |  | > 100
21 | N#CCCN(CCC#N)c1ccc(/C=C2\N=C(c3ccccc3)N(c3ccccn3)C2=O)cc1 | > 100 |  | > 100 | > 100 | > 100 | > 100 | > 100 | > 100 | > 100 | > 100 | > 100 | > 100 | > 100 | > 100 | > 100 | 
22 | O=C(OC(=C(c1ccccc1)c1ccccc1)N1CCCC1=S)C(c1ccccc1)c1ccccc1 | > 10 | > 10 | > 10 | > 10 | > 10 | > 10 | > 10 | > 10 | > 10 |  | > 10 | > 10 | > 10 | > 10 | > 10 | 
23 | CC(=O)Oc1cc2c(cc1OC(C)=O)[C@H]1CC[C@]3(C)[C@@H](OC(C)=O)CC[C@H]3[C@@H]1CC2 | 25.6 | 21.1 | 24.2 | 22.4 | 25.2 | 22.2 |  | 28 | 16.8 | 5.3 | 25.5 | 26.3 | 15.4 | 16.5 | 19.1 | 3.85
24 | CCCCn1c2c(n(CCCC)c1=S)-c1c(n(CCCC)c(=S)n1CCCC)SSSS2 | > 100 | 26.7 | > 95.1 | 9.13 | 46.3 | 1.82 | > 100 | 18.1 |  | 6.04 | 7.24 | 2.28 | 3.8 | 14.6 | 4.2 | 0.274
25 | COC(=O)CCn1cnc2c(SC)ncnc21 | > 100 |  | > 100 | > 100 | > 100 | > 100 | > 100 | > 100 | > 100 | > 100 | > 100 | > 100 | > 100 | > 100 | > 100 | > 100
26 | O=C(CCc1cccc(O)c1)NCCc1ccc(O)cc1 | > 100 |  | > 100 | > 100 | > 100 | > 100 | > 100 | > 100 | > 100 | > 100 | > 100 | > 100 |  | > 100 | > 100 | > 100
27 | c1ccc(/N=N/Nc2ccc(-c3nc4ccccc4[nH]3)cc2)nc1 | > 100 |  | 36.4 | 62.6 | 43 | 26 | 9.79 | 47.2 | 31.8 | 40.5 | 47.2 | 25.1 | 71.5 | 32.5 | 28 | 33.9
28 | CC(C)NCC(O)c1ccc(OCc2ccccc2)c(OCc2ccccc2)c1-c1ccccc1 (stereo unspecified) | 11.6 | 3.06 | 3.21 | 3.54 | 2.74 | 7.53 |  | 3.17 |  | 6.94 | 3.11 | 3.16 | 3.13 | > 100 | 2.71 | 3.16
29 | CCOC(=O)NC(NC(C)CC)(C(F)(F)F)C(F)(F)F (stereo unspecified) | > 100 |  | > 100 | > 100 | > 100 | > 100 | > 100 | > 100 | > 100 | > 100 | > 100 | > 100 | > 100 | > 100 | > 100 | > 100
